Assay results: patent US9938265B2, “1,3,4-thiadiazole compounds and their use in treating cancer” (AstraZeneca AB, priority 2015, dated 2018)
Where two headings read alike, the source gives them in different places.

How the values were obtained:
cellular GLS activity = cellular GLS activity (Homo sapiens (Human), UniProt O94925); test: GLS Cell Potency Assay (PC3 coupled assay measuring cellular glutamate depletion); type: cell-based; settings: PC3 cells, 6 h incubation, glutamate depletion; read-out: Assay b) GLS cell MOA Mean IC50
Chain of cellular GLS activity (O94925 73-669): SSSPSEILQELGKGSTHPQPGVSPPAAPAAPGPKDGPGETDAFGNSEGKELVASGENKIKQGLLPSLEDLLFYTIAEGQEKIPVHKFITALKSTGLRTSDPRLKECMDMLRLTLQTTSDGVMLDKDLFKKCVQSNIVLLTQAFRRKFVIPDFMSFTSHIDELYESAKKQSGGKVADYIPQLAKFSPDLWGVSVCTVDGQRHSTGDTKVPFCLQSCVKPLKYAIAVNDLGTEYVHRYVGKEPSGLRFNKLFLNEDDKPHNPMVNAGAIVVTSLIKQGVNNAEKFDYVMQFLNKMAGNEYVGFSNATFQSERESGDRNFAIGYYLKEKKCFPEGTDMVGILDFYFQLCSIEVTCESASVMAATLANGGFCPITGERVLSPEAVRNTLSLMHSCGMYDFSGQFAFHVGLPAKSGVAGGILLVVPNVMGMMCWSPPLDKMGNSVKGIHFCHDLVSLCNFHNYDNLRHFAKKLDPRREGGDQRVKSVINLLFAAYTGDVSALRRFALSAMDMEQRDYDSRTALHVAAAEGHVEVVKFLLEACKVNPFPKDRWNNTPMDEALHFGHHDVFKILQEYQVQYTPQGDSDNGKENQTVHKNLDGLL
Excerpt: (§1) The following assays were used to measure the effects of the compounds described herein: a) GLS Enzyme Potency Assay; b) GLS Cell Potency Assay; c) GLS Cell Proliferation Assay. During the description of the assays, generally: • i. The following abbreviations have been used: CO2=Carbon dioxide; DMEM=Dulbecco's Modified Eagle Medium; DMSO=Dimethyl sulphoxide; EDTA=Ethylenediaminetetraacetic acid; EGTA=Ethylene glycol tetraacetic acid; FCS=Foetal calf serum; h=Hour(s); NBS=Non-binding surface; SDS=Sodium dodecyl sulphate; TRIS=Tris(Hydroxymethyl)aminomethane. • ii. IC50 values were calculated using a smart fitting model in Genedata.
Assay b): GLS Cell Potency Assay
Compounds were assessed for their potential to inhibit cellular GLS activity by use of a PC3 coupled assay measuring cellular glutamate depletion. […] DMSO concentration was maintained at 0.3% by back filling with DMSO solution. PC3 cells were grown in phenol free DMEM, 10% dialyzed FCS, 2 mM glutamine and following dispersal by trypsinisation were plated at 5.6×10^3 cells per well in 40 μl of growth medium directly into the 384 well assay plates containing dispensed compound. After incubation for 6 h at 37° C., 5% CO2 growth media was aspirated and cells lysed in 15 μl of buffer containing 10 mM TRIS pH7.4, 100 mM NaCl, 1 mM EDTA, 1 mM EGTA, 1 mM NaF, 20 mM Na4P2O7, 2 mM Na3VO4, 1% Triton X-100, 10% glycerol, 0.1% SDS and 0.5% deoxycholate.

NCI-H1703 cells = test: GLS Cell Proliferation Assay (NCI-H1703 cell proliferation); type: cell-based
Excerpt: as §1
Assay c): GLS Cell Proliferation Assay
The ability of compounds to inhibit cell growth was measured using a 384 well plate NCI-H1703 cell proliferation assay. NCI-H1703 cells were grown in phenol red free RPMI1640, 10% FCS and 2 mM glutamine and seeded at a density of 750 cells per well in 40 μl of growth medium into clear-bottom 384 well assay plates (Corning product code 3712) and incubated for 24 h at 37° C., 5% CO2. Test compounds were prepared by dilution in 100% DMSO to give the correct dose range for 12 point concentration response and an appropriate volume (5-120 nl) dispensed directly into the assay plates containing plated cells. DMSO concentration was maintained at 0.3% by back filling with DMSO solution. Plates were incubated for 5 days at 37° C., 5% CO2, Sytox Green and Saponin added to final concentration of 2 μM and 0.25% respectively and incubated for 6 h prior to analysis. Plates were read on an Acumen eX3 (TTP Labtech) using 488 nm excitation and FITC filter set (500-530 nm) for emission. IC50 values were calculated by curve fitting to max inhibition of day zero growth using GeneData software analysis.

GLS1 = GLS1 (Homo sapiens (Human), UniProt O94925); test: GLS Enzyme Potency Assay (Glutamate Oxidase/AmplexRed coupled assay); type: biochemical; settings: 6His tagged GLS protein (amino acids 63-669), glutamine substrate; read-out: Assay a) enz IC50
Chain of GLS1 (O94925 63-669): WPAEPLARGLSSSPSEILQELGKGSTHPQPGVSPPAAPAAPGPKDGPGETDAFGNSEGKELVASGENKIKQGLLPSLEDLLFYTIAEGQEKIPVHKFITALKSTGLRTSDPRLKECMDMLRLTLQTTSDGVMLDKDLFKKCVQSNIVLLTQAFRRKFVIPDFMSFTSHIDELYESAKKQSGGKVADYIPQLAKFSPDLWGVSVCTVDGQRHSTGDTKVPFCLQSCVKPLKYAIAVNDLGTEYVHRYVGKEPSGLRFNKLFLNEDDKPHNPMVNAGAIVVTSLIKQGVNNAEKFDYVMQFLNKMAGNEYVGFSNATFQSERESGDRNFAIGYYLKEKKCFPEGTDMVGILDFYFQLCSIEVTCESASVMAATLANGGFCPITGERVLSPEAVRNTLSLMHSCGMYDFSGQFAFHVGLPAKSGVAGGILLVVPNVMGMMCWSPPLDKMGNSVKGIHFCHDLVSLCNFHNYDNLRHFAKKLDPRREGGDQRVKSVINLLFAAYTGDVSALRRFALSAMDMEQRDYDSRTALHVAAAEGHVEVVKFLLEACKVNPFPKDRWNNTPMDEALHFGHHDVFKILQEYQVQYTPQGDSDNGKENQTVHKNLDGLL
Excerpt: as §1
Assay a): GLS Enzyme Potency Assay
A Glutamate Oxidase/AmplexRed coupled assay was used to measure the ability of compounds to bind to and inhibit the activity of GLS1 in vitro. […] GLS1 was diluted to 2× working concentration and incubated at room temperature to allow the tetrameric/dimeric forms to reach steady state. Assay measurements were performed in buffer comprising 50 mM TRIS pH 7.8, 100 mM NaPO4, pH 7.8, 0.001% v/v Tween20. Purified recombinant GLS1 protein was diluted in assay buffer to 12 nM and pre-incubated at room temperature for 30 minutes. […] DMSO concentration was maintained at 2% by back filling with DMSO solution. 3 μL of diluted GLS1 protein (12 nM) was then dispensed into each well using a BioRaptr automated dispenser (Beckman-Coulter) and incubated for 15 minutes at room temperature. 3 μL of 100 mM glutamine diluted in assay buffer was then added and the reaction incubated at room temperature for 60 minutes. […] An artefact version of the assay where the 6His tagged GLS protein and glutamine were replaced with assay buffer was also used to rule out non specific effects on the assay components.

[1] = NCI-H1703 cells, 5 days; read-out: Assay c) Prolif Mean IC50
[2] = Homo sapiens, NCI-H1703, 120 h, NCI-H1703 cells, 5 days; read-out: Assay c) Prolif Mean IC50

Row | SMILES | IC50 (cellular GLS activity) [nM] | IC50 (NCI-H1703 cells; [1]) [nM] | IC50 (GLS1) [nM] | IC50 (NCI-H1703 cells; [2]) [nM]
1 | CCOC(C(=O)Nc1nnc(N[C@@H]2CCN(c3ccc(F)nn3)C2)s1)c1ccc(F)cc1 (single isomer, unassigned) [Example 25] | 63.2 | 686 | 1090 | 
2 | CCOC(C(=O)Nc1nnc(N[C@@H]2CCN(c3ccc(F)nn3)C2)s1)c1ccc(F)cc1 (single isomer, unassigned) [Example 26] | 2.12 | 21.9 | 94.8 | 
3 | CO[C@H](C(=O)Nc1nnc(N[C@@H]2CCN(c3ccc(F)nn3)C2)s1)c1ccccc1 [Example 2, (2S)-N-[5-[[(3R)-1-(6-Fluoropyridazin-3-yl)pyrrolidin-3-yl]amino]-1,3,4-thiadiazol-2-yl]-2-methoxy-2-phenyl-acetamide] | 0.965 |  | 30.3 | 16.7
4 | CO[C@H](C(=O)Nc1nnc(N[C@@H]2CCN(c3cc(Cl)cnn3)C2)s1)c1ccccc1 [Example 12, (2S)-N-[5-[[(3R)-1-(5-Chloropyridazin-3-yl)pyrrolidin-3-yl]amino]-1,3,4-thiadiazol-2-yl]-2-methoxy-2-phenyl-acetamide] | 0.451 |  | 35.3 | 3.07
5 | CO[C@H](C(=O)Nc1nnc(N[C@@H]2CCN(c3cc(C)cnn3)C2)s1)c1ccccc1 [Example 13, (2S)-2-Methoxy-N-[5-[[(3R)-1-(5-methylpyridazin-3-yl)pyrrolidin-3-yl]amino]-1,3,4-thiadiazol-2-yl]-2-phenyl-acetamide] | 0.658 |  | 59.2 | 8.48
6 | CO[C@H](C(=O)Nc1nnc(N[C@@H]2CCN(c3ccc(C)nn3)C2)s1)c1ccccc1 [Example 14, (2S)-2-methoxy-N-[5-[[(3R)-1-(6-methylpyridazin-3-yl)pyrrolidin-3-yl]amino]-1,3,4-thiadiazol-2-yl]-2-phenyl-acetamide] | 1.04 |  | 44.3 | 22.7

More lines, now with the values ahead:

Row | IC50 (cellular GLS activity) [nM] | IC50 (NCI-H1703 cells; [1]) [nM] | IC50 (GLS1) [nM] | IC50 (NCI-H1703 cells; [2]) [nM] | SMILES
7 | 72.2 | 1220 | 2380 |  | CCOC(C(=O)Nc1nnc(N[C@@H]2CCN(c3ccc(C)nn3)C2)s1)c1ccc(F)cc1 (single isomer, unassigned) [Example 27]
8 | 3.57 | 73.2 | 96 |  | CCOC(C(=O)Nc1nnc(N[C@@H]2CCN(c3ccc(C)nn3)C2)s1)c1ccc(F)cc1 (single isomer, unassigned) [Example 28]
9 | 19.2 | 18.9 | 148 |  | COc1ccc([C@H](OC)C(=O)Nc2nnc(N[C@@H]3CCN(c4cc(C)cnn4)C3)s2)cc1 (single isomer, unassigned) [Example 33(a)]
10 | 5.29 | 43.7 | 119 |  | COc1ccc(C(OC)C(=O)Nc2nnc(N[C@@H]3CCN(c4ccc(C)nn4)C3)s2)cc1 (stereo partly drawn) [Example 30, 2-methoxy-2-(4-methoxyphenyl)-N-[5-[[(3R)-1-(6-methylpyridazin-3-yl)pyrrolidin-3-yl]amino]-1,3,4-thiadiazol-2-yl]acetamide]
